Data reported in patent US20030012820A1, “Compressible guaifenesin compositions, method for making same and method for making compressed guaifenesin dosage forms therefrom” (priority 2001, published 2003).

Tests used:
[1] = Bulk density, VanKel cylinder; assay type: physicochemical
Protocol: (§1) The particle size distribution, bulk density, moisture content and flow properties were measured for each of the compositions of Examples 1-10 and for Comparison Examples C1-C4. Comparison Examples C1-C4 were commercially available directly compressible guaifenesin compositions. Particle size distribution was measured by sieve analysis using screens of the indicated mesh sizes. Bulk density was measured using a VanKel cylinder. Moisture content was measured by Karl Fischer titration. Flow properties were measured using a VanKel flowmeter with a strip chart recorder. […] Results are given below in TABLES 1A, 1B and 1C

[2] = Particle size distribution by sieve analysis; assay type: physicochemical
Text: USP grade guaifenesin powders GP-A, GP-B, GP-C and GP-D having the respective particle size distributions set forth below, were used in the examples. Guaifenesin powder GP-A was made by Rhodia Inc., guaifenesin powders GP-B, GP-C and GP-D were obtained from other commercial sources. In the tables below, the result “% R” for a sample means the amount of sample retained on the corresponding screen size set forth in the table, expressed as a percent by weight of the total sample amount, and the result “% CR” for a sample means the cumulative amount of the sample retained on all screen sizes larger than the corresponding screen size, expressed as a percent by weight of the total sample amount.
as §1

Row | Bulk Density [1] [g/cc] | % CR (cumulative amount retained) ([2]; US Mesh 20 (850 μm)) [%] | % R (amount retained on screen) ([2]; US Mesh 20 (850 μm)) [%] | % CR (cumulative amount retained) ([2]; US Mesh 40 (425 μm)) [%] | % R (amount retained on screen) ([2]; US Mesh 40 (425 μm)) [%] | % CR (cumulative amount retained) ([2]; US Mesh 60 (250 μm)) [%] | % R (amount retained on screen) ([2]; US Mesh 60 (250 μm)) [%] | % CR (cumulative amount retained) ([2]; US Mesh 80 (180 μm)) [%] | % R (amount retained on screen) ([2]; US Mesh 80 (180 μm)) [%] | % CR (cumulative amount retained) ([2]; US Mesh 100 (150 μm)) [%] | % R (amount retained on screen) ([2]; US Mesh 100 (150 μm)) [%] | % CR (cumulative amount retained) ([2]; US Mesh 200 (75 μm)) [%] | % R (amount retained on screen) ([2]; US Mesh 200 (75 μm)) [%] | % CR (cumulative amount retained) ([2]; US Mesh 325 (45 μm)) [%] | % R (amount retained on screen) ([2]; US Mesh 325 (45 μm)) [%] | % CR (cumulative amount retained) ([2]; pan (<45 μm)) [%] | % R (amount retained) ([2]; pan (<45 μm)) [%] | Compound
1 | 0.45 | 0 | 0 | 0 | 0 | 0.8 | 0.8 | 3.2 | 2.4 | 7.6 | 4.4 | 38.4 | 30.8 | 76.8 | 38.4 | 100 | 23.2 | COc1ccccc1OCC(O)CO (single isomer, unassigned) [GP-A, guaifenesin]
2 | 0.40 | 0 | 0 | 0 | 0 | 0 | 0 | 3.2 | 3.2 | 9.6 | 6.4 | 60.0 | 50.4 | 89.6 | 29.6 | 100 | 10.4 | COc1ccccc1OCC(O)CO (single isomer, unassigned) [GP-D, guaifenesin]
3 | 0.35 | 0 | 0 | 2.0 | 2.0 | 3.2 | 1.2 | 3.2 | 0 | 4.0 | 0.8 | 11.2 | 7.2 | 77.6 | 66.4 | 100 | 22.4 | COc1ccccc1OCC(O)CO (single isomer, unassigned) [GP-C, guaifenesin]
4 | 0.41 | 0 | 0 | 0.4 | 0.4 | 0.4 | 0 | 2.4 | 2.0 | 3.2 | 0.8 | 11.2 | 8.0 | 58.0 | 46.8 | 100 | 42.0 | COc1ccccc1OCC(O)CO (single isomer, unassigned) [GP-B, guaifenesin]
